Consider 5 compounds from patent publication US20230114728A1 (Venatorx Pharmaceuticals, Inc., priority 2019, published 2023).

Holding throughout (format): cell-based
In assay [1] the test system is P. aeruginosa (ΔmexAB-oprM). Briefly: Broth microdilution MIC in CAMHB. The note with it: Pseudomonas aeruginosa, read-out: Minimum Inhibitory Concentration, P. aeruginosa ΔmexAB-OprM. A digest of the protocol:
(§1)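 MIC, read by eye, is the lowest compound concentration giving no bacterial growth after 16-20 h at 37° C. Test compounds are serially diluted 2-fold in CAMHB and seeded with 2-8×10^5 CFU/mL of bacteria taken from a 3-5 h shaking culture, following CLSI methods.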
(In broth dilution the organism is exposed to a series of concentrations in liquid medium.)

The subject of another assay is E. coli AG100. Briefly: Broth microdilution MIC in CAMHB. The note with it: Escherichia coli; E. coli AG100 (wild-type parent); MHB; read-out: Minimum Inhibitory Concentration, E. coli AG100. A digest of the protocol:
as §1

In the next assay the test system is E. coli AG100A. Briefly: Broth microdilution MIC in CAMHB. The note with it: Escherichia coli, read-out: Minimum Inhibitory Concentration, E. coli AG100A. In outline: as §1
For assay [2], the system named is K. pneumoniae 848844 producing SHV-11 and KPC-2. Briefly: Broth microdilution MIC in CAMHB. The note with it: Klebsiella pneumoniae, read-out: Minimum Inhibitory Concentration, K. pneumoniae 848844. A digest of the protocol:
as §1

The test system of another assay is E. coli ATCC 25922. Briefly: Broth microdilution MIC in CAMHB. The note with it: Escherichia coli, ATCC25922; E. coli ATCC 25922; MHB; read-out: Minimum Inhibitory Concentration, E. coli 25922. In outline:
as §1

Another assay deals with A. baumannii ATCC 19606. Briefly: Broth microdilution MIC in CAMHB. The note with it: Acinetobacter baumannii, ATCC19606; MHB; read-out: Minimum Inhibitory Concentration, A. baumannii ATCC 19606. A digest of the protocol: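 Lowest compound concentration with no visible growth after 16-20 h at 37 °C defines MIC. Plates of 2-fold serial dilutions in cation-adjusted Mueller Hinton broth received 2-8×10^5 CFU/mL of exponentially grown cells, per CLSI methods; panel spans reference, hyper-permeable and efflux-pump-deleted strains.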

The next assay relates to E. coli D22. Briefly: Broth microdilution MIC in CAMHB. The note with it: Escherichia coli; E. coli D22 (hyper-permeable); MHB; read-out: Minimum Inhibitory Concentration, E. coli D22. A digest of the protocol:
as §1

Assay [3] concerns K. pneumoniae UMM producing SHV-5 and KPC-2. Briefly: Broth microdilution MIC in CAMHB. The note with it: Klebsiella pneumoniae, read-out: Minimum Inhibitory Concentration, K. pneumoniae UMM. A digest of the protocol:
as §1

Assay [4] has as its system K. pneumoniae SI-117 producing VIM-1. Briefly: Broth microdilution MIC in CAMHB. The note with it: Klebsiella pneumoniae, read-out: Minimum Inhibitory Concentration, K. pneumoniae SI-117. In outline: as §1
Another assay deals with P. aeruginosa ATCC 35151. Briefly: Broth microdilution MIC in CAMHB. The note with it: Pseudomonas aeruginosa, ATCC35151; MHB; hyper-permeable strain; read-out: Minimum Inhibitory Concentration, P. aeruginosa ATCC 35151. A digest of the protocol:
as §1

The next assay concerns P. aeruginosa ATCC 27853. Briefly: Broth microdilution MIC in CAMHB. The note with it: Pseudomonas aeruginosa, ATCC27853; MHB; read-out: Minimum Inhibitory Concentration, P. aeruginosa ATCC 27853. In outline:
as §1

The subject of another assay is E. coli 901C. Briefly: Broth microdilution MIC in CAMHB. The note with it: Escherichia coli; E. coli 901C (hyper-permeable); MHB; read-out: Minimum Inhibitory Concentration, E. coli 901C. A digest of the protocol: as §1
The test system of another assay is N. gonorrhoeae WHO L. Briefly: Liquid broth MIC in Fastidious broth. The note with it: Neisseria gonorrhoeae; N. gonorrhoeae strain WHO L; Fastidious broth; read-out: Minimum Inhibitory Concentration, N. gonorrhoeae WHO L. A digest of the protocol:
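Colonies were swabbed from chocolate agar after 24 h growth and standardised by optical density at 600 nm. Compounds were serially diluted twofold in Fastidious broth, and bacteria added to give 5×10^5 CFU/mL. After about 24 h at 36 °C in 5% CO2, the lowest concentration allowing under 10% growth was taken as MIC.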

Values after ≈ are worked out from the molar mass of the structure shown.

In the case of `NC1(CN2CCN(C(=O)N[C@@H](C(=O)N[C@H]3Cc4cccc(C(=O)O)c4OB3O)c3c(F)cc(O)cc3F)C(=O)C2=O)CC1` (single isomer, unassigned) [Example 121], the MIC was 8 to 16 mg/L (≈ 13.3 to 26.6 µM) in assay [1]; 8 to 16 mg/L (≈ 13.3 to 26.6 µM) in the assay on E. coli AG100; 2 to 4 mg/L (≈ 3.33 to 6.65 µM) with E. coli AG100A; 32 to 64 mg/L (≈ 53.2 to 106 µM) in assay [2]; 8 to 16 mg/L (≈ 13.3 to 26.6 µM) in the assay with E. coli ATCC 25922; above 128 mg/L with A. baumannii ATCC 19606. The MIC is 2 to 4 mg/L (≈ 3.33 to 6.65 µM) in the assay on E. coli D22; 8 to 16 mg/L (≈ 13.3 to 26.6 µM) in assay [3]; 32 to 64 mg/L (≈ 53.2 to 106 µM) in [4]; 0.5 to 1 mg/L (≈ 0.831 to 1.66 µM) in the assay on P. aeruginosa ATCC 35151; above 128 mg/L with P. aeruginosa ATCC 27853; 0.5 to 1 mg/L (≈ 0.831 to 1.66 µM) in the assay with E. coli 901C. Moreover, the MIC in the assay with N. gonorrhoeae WHO L is above 64 mg/L.

As for `NC1(CN2CCN(C(=O)N[C@H](C(=O)N[C@H]3Cc4cccc(C(=O)O)c4OB3O)c3c(F)cc(O)cc3F)C(=O)C2=O)CC1` (single isomer, unassigned) [Example 122], the MIC was 32 to 64 mg/L (≈ 53.2 to 106 µM) in [1]; 32 to 64 mg/L (≈ 53.2 to 106 µM) with E. coli AG100; 8 to 16 mg/L (≈ 13.3 to 26.6 µM) with E. coli AG100A; above 128 mg/L in assay [2]; 32 to 64 mg/L (≈ 53.2 to 106 µM) in the assay with E. coli ATCC 25922; above 128 mg/L with A. baumannii ATCC 19606. The MIC in the assay on E. coli D22 was 8 to 16 mg/L (≈ 13.3 to 26.6 µM); in assay [3], 32 to 64 mg/L (≈ 53.2 to 106 µM); in assay [4], 32 to 64 mg/L (≈ 53.2 to 106 µM); with P. aeruginosa ATCC 35151, 2 to 4 mg/L (≈ 3.33 to 6.65 µM); with P. aeruginosa ATCC 27853, above 128 mg/L; with E. coli 901C, 2 to 4 mg/L (≈ 3.33 to 6.65 µM). In addition, in the assay on N. gonorrhoeae WHO L, the MIC was above 64 mg/L.

As to `O=C(O)c1cccc2c1OB(O)[C@@H](NC(=O)[C@H](NC(=O)N1CCN(CCF)C(=O)C1=O)c1c(F)cc(O)cc1F)C2` (single isomer, unassigned) [Example 126], the MIC was 8 to 16 mg/L (≈ 13.8 to 27.7 µM) in [1]; 8 to 16 mg/L (≈ 13.8 to 27.7 µM) with E. coli AG100; 32 to 64 mg/L (≈ 55.3 to 111 µM) in assay [2]; 8 to 16 mg/L (≈ 13.8 to 27.7 µM) in the assay on E. coli ATCC 25922; above 128 mg/L in the assay on A. baumannii ATCC 19606; 0.5 to 1 mg/L (≈ 0.865 to 1.73 µM) with E. coli D22. The MIC in assay [3] was 8 to 16 mg/L (≈ 13.8 to 27.7 µM); in assay [4], 8 to 16 mg/L (≈ 13.8 to 27.7 µM); in the assay on P. aeruginosa ATCC 35151 it was 2 to 4 mg/L (≈ 3.46 to 6.92 µM); in the assay on P. aeruginosa ATCC 27853, above 128 mg/L; with E. coli 901C, below 0.25 mg/L; in the assay on N. gonorrhoeae WHO L, 16 to 32 mg/L (≈ 27.7 to 55.3 µM).

With `CCN1CCN(C(=O)N[C@@H](C(=O)N[C@H]2Cc3cccc(C(=O)O)c3OB2O)c2ccc(C(=O)O)c(Cl)c2)C(=O)C1=O` (single isomer, unassigned) [Example 154], the MIC in assay [1] is 8 to 16 mg/L (≈ 13.6 to 27.3 µM); with E. coli AG100 it was 32 to 64 mg/L (≈ 54.5 to 109 µM); in the assay with E. coli AG100A, 8 to 16 mg/L (≈ 13.6 to 27.3 µM); in assay [2], above 128 mg/L; with E. coli ATCC 25922 it was 32 to 64 mg/L (≈ 54.5 to 109 µM); in the assay with A. baumannii ATCC 19606, 32 to 64 mg/L (≈ 54.5 to 109 µM). Besides, the MIC in the assay with E. coli D22 was 2 to 4 mg/L (≈ 3.41 to 6.82 µM); in assay [3] it was 32 to 64 mg/L (≈ 54.5 to 109 µM); in the assay on P. aeruginosa ATCC 35151, below 0.25 mg/L; with P. aeruginosa ATCC 27853, above 128 mg/L; in the assay with E. coli 901C it was below 0.25 mg/L; in the assay on N. gonorrhoeae WHO L, 4 to 8 mg/L (≈ 6.82 to 13.6 µM).

With `CCN1CCN(C(=O)NC(C(=O)N[C@H]2Cc3cccc(C(=O)O)c3OB2O)c2c(F)cc(O)cc2F)C(=O)C1=O` (stereo partly drawn) [Example 105, (3R)-3-(2-(2,6-difluoro-4-hydroxyphenyl)-2-(4-ethyl-2,3-dioxopiperazine-1-carboxamido)acetamido)-2-hydroxy-3,4-dihydro-2H-benzo[e][1,2]oxaborinine-8-carboxylic acid], the MIC fell in the range of 8 to 16 mg/L (≈ 14.3 to 28.6 µM) with E. coli AG100; 0.5 to 1 mg/L (≈ 0.892 to 1.78 µM) in the assay on E. coli AG100A; 32 to 64 mg/L (≈ 57.1 to 114 µM) in [2]; 8 to 16 mg/L (≈ 14.3 to 28.6 µM) in the assay on E. coli ATCC 25922; 0.5 to 1 mg/L (≈ 0.892 to 1.78 µM) in the assay on E. coli D22; 8 to 16 mg/L (≈ 14.3 to 28.6 µM) in assay [3]. Besides, the MIC in assay [4] was 32 to 64 mg/L (≈ 57.1 to 114 µM); in the assay on E. coli 901C, below 0.25 mg/L; with N. gonorrhoeae WHO L, 16 to 32 mg/L (≈ 28.6 to 57.1 µM).
